For data set [1], the target named is Human immunodeficiency virus type 1 reverse transcriptase (Human immunodeficiency virus 1, UniProt Q72547). Nature of the data set: Inhibitory constant against HIV-1 reverse transcriptase.
Data set [2] in a line: Half-life determined in fetal calf serum. The data set is classed as ADME, Bos taurus. The conditions noted are these: cattle.

We go through 23 compounds from ChEMBL document CHEMBL1143584, “Synthesis of 2',3'-dideoxynucleoside 5'-alpha-P-borano-beta,gamma-(difluoromethylene)triphosphates and their inhibition of HIV-1 reverse transcriptase” (J Med Chem, 2005).

On to `Cc1cn([C@H]2C[C@H](N=[N+]=[N-])[C@@H](CO[P@](=O)(O)O[P@](=O)(O)OP(=O)(O)O)O2)c(=O)[nH]c1=O` [ZIDOVUDINE TRIPHOSPHATE], for which affinity in data set [1] was put at a Ki of 91 nM. Besides, the half-life (usually the time in which the quantity being followed falls by half) in data set [2] was 2 h.
In the same order, the values of `BP(=O)(OC[C@H]1O[C@@H](n2ccc(N)nc2=O)CS1)OP(=O)(O)C(F)(F)P(=O)(O)O` (mixture of isomers) are 314 nM and greater than 48 h.
For the compound `Nc1nc(=O)n([C@H]2CS[C@@H](COP(=O)(O)OP(=O)(O)OP(=O)(O)O)O2)cc1F`, in data set [1], the Ki – broadly, the equilibrium dissociation constant of an inhibitor or competing ligand from its target – worked out at 501 nM.
`Nc1ccn([C@H]2CC[C@@H](COP(=O)(O)OP(=O)(O)OP(=O)(O)O)O2)c(=O)n1` [DDCTP]: the half-life in data set [2] is 0.8 h.
Consider `NC1=NCc2c(ncn2[C@H]2CC[C@@H](COP(=O)(O)OP(=O)(O)OP(=O)(O)O)O2)C1=O`, for which, in data set [1], the Ki was found to be 25 nM.
Same read-out and setting: next, `BP(=O)(OC[C@H]1O[C@@H](n2cc(F)c(N)nc2=O)CS1)OP(=O)(O)C(F)(F)P(=O)(O)O` (stereo not given in full): 1770 nM; `Nc1ncnc2c1ncn2[C@H]1CC[C@@H](COP(=O)(O)OP(=O)(O)OP(=O)(O)O)O1` [DDA-TRIPHOSPHATE]: 20 nM.
Compound `Nc1ccn([C@@H]2CS[C@H](COP(=O)(O)OP(=O)(O)OP(=O)(O)O)O2)c(=O)n1` [LAMIVUDINE TRIPHOSPHATE] displayed a Ki in data set [1] of 188 nM. For the same compound, the half-life in data set [2] is 3 h.
In the case of `BP(=O)(OC[C@H]1O[C@@H](n2cc(C)c(=O)[nH]c2=O)C[C@@H]1F)OP(=O)(O)C(F)(F)P(=O)(O)O` (stereo not given in full), in data set [1], the Ki is 46 nM. This lies in the double-digit nanomolar range.
In data set [1], `BP(=O)(OC[C@@H]1CC[C@H](n2ccc(N)nc2=O)O1)OP(=O)(O)C(F)(F)P(=O)(O)O` (stereo not given in full) returned an inhibition constant (Ki) of 23 nM. In data set [2], the half-life is greater than 48 h.
`Nc1nc(O)c2ncn([C@H]3C=CC(COP(=O)(O)OP(=O)(O)OP(=O)(O)O)C3)c2n1` (stereo not given in full): the inhibitory constant (Ki) in data set [1] was 37 nM.
In data set [1], `Nc1ccn([C@H]2CC[C@@H](CO)O2)c(=O)n1` [ZALCITABINE] displayed a Ki of 51 nM.
In data set [1], `BP(=O)(OC[C@@H]1C=C[C@H](n2cnc3c(O)nc(N)nc32)C1)OP(=O)(O)C(F)(F)P(=O)(O)O` (stereo not given in full) displayed an inhibition constant (Ki) of 34 nM.
Still for that read-out and setting: then `BP(=O)(OC[C@@H]1CC[C@H](n2cnc3c(O)nc(N)cc32)O1)OP(=O)(O)C(F)(F)P(=O)(O)O` (single isomer, unassigned; diastereomer I), with 71 nM.
Compound `BP(=O)(OC[C@@H]1CC[C@H](n2ccc(=O)[nH]c2=O)O1)OP(=O)(O)C(F)(F)P(=O)(O)O` (stereo not given in full) yielded a Ki in data set [1] of 438 nM. Besides, the half-life in data set [2] was greater than 48 h.
The compound `Cc1cn([C@H]2C[C@H](F)[C@@H](COP(=O)(O)OP(=O)(O)OP(=O)(O)O)O2)c(=O)[nH]c1=O` had a Ki in data set [1] of 71 nM.
On the same count and under the same terms, then `Cc1cn([C@H]2C=C[C@@H](COP(=O)(O)OP(=O)(O)OP(=O)(O)O)O2)c(=O)[nH]c1=O` [STAVUDINE TRIPHOSPHATE], with 56 nM; and `BP(=O)(OC[C@@H]1C=C[C@H](n2cc(C)c(=O)[nH]c2=O)O1)OP(=O)(O)C(F)(F)P(=O)(O)O` (stereo not given in full), with 45 nM.
The same measure, in the same setting: next, `BP(=O)(OC[C@@H]1CC[C@H](n2cnc3c(N)ncnc32)O1)OP(=O)(O)C(F)(F)P(=O)(O)O` (stereo not given in full): 47 nM.
In data set [1], `BP(=O)(OC[C@H]1O[C@@H](n2cc(C)c(=O)[nH]c2=O)C[C@@H]1N=[N+]=[N-])OP(=O)(O)C(F)(F)P(=O)(O)O` (stereo not given in full) had a Ki of 94 nM. In data set [2], this compound gave a half-life greater than 48 h.
For the compound `O=c1ccn([C@H]2CC[C@@H](COP(=O)(O)OP(=O)(O)OP(=O)(O)O)O2)c(=O)[nH]1`, in data set [1], the affinity corresponds to a Ki of 545 nM. In data set [2], this compound gave a half-life of 1 h.
`BP(=O)(OC[C@@H]1CC[C@H](n2cc(C)c(=O)[nH]c2=O)O1)OP(=O)(O)C(F)(F)P(=O)(O)O` (mixture of isomers): in data set [1], affinity was put at a Ki of 236 nM.
Still for that read-out and setting: then `Cc1cn([C@H]2C[C@H](O)[C@@H](COP(=O)(O)OP(=O)(O)OP(=O)(O)O)O2)c(=O)[nH]c1=O` [DEOXYTHYMIDINE_TRIPHOSPHATE], with 61 nM.
